Results published in article PMC6099957, “Mouse β-Defensin 3, A Defensin Inhibitor of Both Its Endogenous and Exogenous Potassium Channels” (Molecules : A Journal of Synthetic Chemistry and Natural …, 2018).
Read-outs that look alike come from different tables or passages of the source. No end group written: not given here.

Experiments:
human Kv1.2 channel = assay: Whole-cell patch clamp, human Kv1.2 channel in HEK293 cells; type: cell-based; details: 1 μM rmBD3, mean ± SE, at least three times, SEM
From the text: (§1) The pRc/CMV-hKv1.3 vector was kindly provided by Prof. Stephan Grissmer (University of Ulm, Ulm, Germany) and Prof. Olaf Pongs (Zentrum für Molekulare Neurobiologie der University Hamburg, Hamburg, Germany). The cDNAs encoding human Kv1.1, Kv1.2, hERG and KCNQ1/KCNE1 channels were subcloned into the vector pIRES2-EGFP (TaKaRa Clontech, Mountain View, CA, USA) for coexpression with the green fluorescent protein (GFP), and the other channels were subcloned into vector pcDNA 3.1(+) (TaKaRa Clontech, Mountain View, CA, USA) for coexpression with GFP. The constructs were verified by DNA sequencing (Sangon Biotech, Shanghai, China). The mutants Asp400, Asp401, Val402, Asp403, Asp411, Met428 and Tyr429 on the pore region of wild type mouse Kv1.6 channel plasmids were mutated into Ala with QuikChange Site-Directed Mutagenesis Kit (Agilent Stratagene, Santa Clara, CA, USA). All the mutants were verified by DNA sequencing before being used (Sangon Biotech, China).
(§2) Human embryonic kidney 293 (HEK293) cells were cultured Dulbecco’s modified Eagle medium (Thermo Fisher Scientific, Pittsburgh, PA. USA) with 10% heat-inactivated fetal calf serum supplemented with penicillin (100 units/mL) and streptomycin (100 μg/mL) in a humidified 5% CO2 incubator at 37 °C. […] Potassium currents were recorded after transfection for 1 to 3 days and positive cells were selected based on the presence of GFP fluorescence. […]

mouse Kv1.3 channel = assay: Whole-cell patch clamp, mouse Kv1.3 channel in HEK293 cells; type: cell-based; details: 1 μM rmBD3, mean ± SE, at least three times, SEM
Method: (§3) Human embryonic kidney 293 (HEK293) cells were cultured Dulbecco’s modified Eagle medium (Thermo Fisher Scientific, Pittsburgh, PA. USA) with 10% heat-inactivated fetal calf serum supplemented with penicillin (100 units/mL) and streptomycin (100 μg/mL) in a humidified 5% CO2 incubator at 37 °C. Plasmids were transfected into HEK293 cells using the TurboFect in vitro Transfection Reagent (Thermo Fisher Scientific, Pittsburgh, PA, USA). Potassium currents were recorded after transfection for 1 to 3 days and positive cells were selected based on the presence of GFP fluorescence.
(§4) Electrophysiological experiments were carried out at room temperature using the whole-cell recording mode by EPC10 patch clamp amplifier (Heka Elektronik, Lambrecht, Germany), which was controlled by Patchmaster software version 2 × 65 (Heka Elektronik, Holliston, MA, USA). For all the channels, HEK293 cells were bathed with mammalian Ringer’s solution contained 5 mM KCl, 140 mM NaCl, 10 mM HEPES, 2 mM CaCl2, 1 mM MgCl2 and 10 mM D-glucose (pH adjusted to 7.4 with NaOH). When rmBD3 was applied, 0.01% BSA was added to the Ringer’s solution. A multichannel microperfusion system MPS-2 (INBIO Inc., Wuhan, China) was used to exchange the external recording bath solution. […] The currents through Kv channels and KCNQ1/KCNE1 channel were recorded according to previously published references. […]

human Kv1.1 channel = assay: Whole-cell patch clamp, human Kv1.1 channel in HEK293 cells; type: cell-based; details: 1 μM rmBD3, mean ± SE, at least three times, SEM
From the text: as §1, §2

Kv1.6-D403A channel = assay: Patch clamp, mouse Kv1.6 pore region mutant D403A; type: cell-based; details: 1 μM rmBD3; HEK293 cells; mean ± SE, at least three times; SEM
From the text: as §1, §2

Kv1.6-V402A channel = assay: Patch clamp, mouse Kv1.6 pore region mutant V402A; type: cell-based; details: 1 μM rmBD3; HEK293 cells; mean ± SE, at least three times; SEM
From the text: as §1, §2

Kv1.6-Y429A channel = assay: Patch clamp, mouse Kv1.6 pore region mutant Y429A; type: cell-based; details: 1 μM rmBD3; HEK293 cells; mean ± SE, at least three times; SEM
From the text: as §1, §2

mouse Kv1.6 channel = assay: Whole-cell patch clamp, mouse Kv1.6 channel in HEK293 cells; type: cell-based; details: mean ± SE, SEM; for inhibition of mouse Kv1.6 channel currents: at least three times
Method: as §3
(§5) Electrophysiological experiments were carried out at room temperature using the whole-cell recording mode by EPC10 patch clamp amplifier (Heka Elektronik, Lambrecht, Germany), which was controlled by Patchmaster software version 2 × 65 (Heka Elektronik, Holliston, MA, USA). For all the channels, HEK293 cells were bathed with mammalian Ringer’s solution contained 5 mM KCl, 140 mM NaCl, 10 mM HEPES, 2 mM CaCl2, 1 mM MgCl2 and 10 mM D-glucose (pH adjusted to 7.4 with NaOH). When rmBD3 was applied, 0.01% BSA was added to the Ringer’s solution. A multichannel microperfusion system MPS-2 (INBIO Inc., Wuhan, China) was used to exchange the external recording bath solution. The internal pipette solution contains 140 mM KCl, 1 mM MgCl2, 1 mM EGTA, 1 mM Na2ATP and 5 mM HEPES (pH adjusted to 7.4 with NaOH). All channel currents were elicited by depolarizing voltage steps of 200 ms from the holding potential −80 mV to +50 mV. Currents were typically digitized at 20 kHz and filtered at 2.9 kHz (Bessel). Electrode resistances were 3.0–5.0 MΩ, and the series resistance was usually compensated by 85%. The currents through Kv channels and KCNQ1/KCNE1 channel were recorded according to previously published references.
(§6) The IC50 values were obtained by fitting a modified Hill equation to the data with the formula: IrmBD3/Icontrol = 1/(1 + [rmBD3]/IC50), where [rmBD3] is the concentration of rmBD3, IrmBD3 and Icontrol are the peak currents in the presence and absence of rmBD3 at four different concentrations. The conductance of mouse Kv1.6 channel was calculated by the formula: G = Ipeak/(V − EKv1.6), where Ipeak is the peak current, EKv1.6 is the reversal potential of the Kv1.6 channel. The conductance-voltage (G-V) curves were generated by the measured peak currents and fitted with a V50-V equation using the formula: G/Gmax = 1/(1 + exp [(V − V50)/k]), where G is the conductance of the channels, Gmax is the maximal channel conductance, V is the membrane voltage, V50 is the voltage of half-maximal activation, and k is the slope factor. The data were presented as the means ± SE of at least three times repeated experiments. Sigmaplot 12.5 and GraphPad Prism 5 software were used for analysis.

[1] = test system: human KCNQ1/KCNE1 channel; type: cell-based; details: HEK293 cells, mean ± SE, SEM; for inhibition of human KCNQ1/KCNE1 channel currents: at least three times
From the text: as §1, §3
as §5, with “Electrode resistances were 3.0–5.0 MΩ, and the series resistance was usually compensated by 85%.” left out
as §6, with “The data were presented as the means ± SE of at least three times repeated experiments. Sigmaplot 12.5 and GraphPad Prism 5 software were used for analysis.” left out

human Kv3.2 channel = assay: Whole-cell patch clamp, human Kv3.2 channel in HEK293 cells; type: cell-based; details: 1 μM rmBD3, mean ± SE, at least three times, SEM
Method: as §3, §4

Kv1.6-M428A channel = assay: Patch clamp, mouse Kv1.6 pore region mutant M428A; type: cell-based; details: 1 μM rmBD3; HEK293 cells; mean ± SE, at least three times; SEM
From the text: as §1, §2

Kv1.6-D411A channel = assay: Patch clamp, mouse Kv1.6 pore region mutant D411A; type: cell-based; details: 1 μM rmBD3; HEK293 cells; mean ± SE, at least three times; SEM
From the text: as §1, §2

human Kv1.3 channel = assay: Whole-cell patch clamp, human Kv1.3 channel in HEK293 cells; type: cell-based; details: 1 μM rmBD3, mean ± SE, at least three times, SEM
From the text: as §1, §2

human KCNQ1 channel = type: cell-based; details: 1 μM rmBD3; HEK293 cells; mean ± SE, at least three times; SEM
Method: as §3, §4

human Kv1.6 channel = assay: Whole-cell patch clamp, human Kv1.6 channel in HEK293 cells; type: cell-based; details: 1 μM rmBD3, mean ± SE, at least three times, SEM
Method: as §3, §4

hERG channel = type: cell-based, human; details: 1 μM rmBD3; HEK293 cells; mean ± SE, at least three times; SEM
From the text: as §1, §2

Kv1.6-D401A channel = assay: Patch clamp, mouse Kv1.6 pore region mutant D401A; type: cell-based; details: 1 μM rmBD3; HEK293 cells; mean ± SE, at least three times; SEM
From the text: as §1, §2

Kv1.6-D400A channel = assay: Patch clamp, mouse Kv1.6 pore region mutant D400A; type: cell-based; details: 1 μM rmBD3; HEK293 cells; mean ± SE, at least three times; SEM
From the text: as §1, §2

mouse Kv1.2 channel = assay: Whole-cell patch clamp, mouse Kv1.2 channel in HEK293 cells; type: cell-based; details: 1 μM rmBD3, mean ± SE, at least three times, SEM
Method: as §3, §4

mouse Kv1.1 channel = assay: Whole-cell patch clamp, mouse Kv1.1 channel in HEK293 cells; type: cell-based; details: 1 μM rmBD3, mean ± SE, at least three times, SEM
Method: as §3, §4

Kv1.3 = details: read-out: IC50 as Kv1.3 inhibitor; cited from earlier work
From the text: Here, the Kv1.3 channel-sensitive hBD2 was used as the molecular template to search potential mouse β-defensin from the biological databases. […] Besides the sequence similarity, the distribution of six cysteine amino acid residues was also identical. In order to better understand the structural feature of mBD3, its structure was modeled by the tem ...

mouse β-defensin 3 (KKINNPVSCLRKGGRCWNRCIGNTRQIGSCGVPFLKCCKRK; ends and bridges not checked; cysteine pairing not given here; UniProt Q9WTL0 23-63, looked up) [rmBD3, Recombinant mouse β-defensin 3 expressed in E. coli, cleaved from His-tag fusion by Enterokinase, HPLC purified]
inhibition of human Kv1.2 potassium currents (human Kv1.2 channel): 9.3 ± 0.8%
inhibition of mouse Kv1.3 potassium currents (mouse Kv1.3 channel): 14.0 ± 3.7%
inhibition of human Kv1.1 potassium currents (human Kv1.1 channel): 8.8 ± 3.0%
inhibition of mutant Kv1.6-D403A channel (Kv1.6-D403A channel): 35.6 ± 1.0%
inhibition of mutant Kv1.6-V402A channel (Kv1.6-V402A channel): 21.8 ± 4.5%
inhibition of mutant Kv1.6-Y429A channel (Kv1.6-Y429A channel): 36.7 ± 2.0%
inhibition of mouse Kv1.6 channel currents (mouse Kv1.6 channel; 1 nM rmBD3, HEK293 cells): 18.1 ± 2.4%
inhibition of mouse Kv1.6 channel currents (mouse Kv1.6 channel; 10 nM rmBD3, HEK293 cells): 26.4 ± 1.8%
inhibition of mouse Kv1.6 channel currents (mouse Kv1.6 channel; 1 μM rmBD3, HEK293 cells, whole-cell patch clamp): 56.1 ± 4.2%
inhibition of mouse Kv1.6 channel currents (mouse Kv1.6 channel; 10 μM rmBD3, HEK293 cells): 73.1 ± 2.2%
IC50 (mouse Kv1.6 channel; Hill equation fitting, four concentrations, HEK293 cells, read-out: IC50, mouse Kv1.6 channel currents): 600 ± 400 nM
k (slope factor) of activation G-V curve of Kv1.6 channel in the presence of rmBD3 (mouse Kv1.6 channel; after treatment with 1 μM rmBD3 (control 6.8 ± 0.6), Boltzmann fitting): 6.5 ± 0.4
V50 of activation G-V curve of Kv1.6 channel in the presence of rmBD3 (mouse Kv1.6 channel; after treatment with 1 μM rmBD3 (control −23.8 ± 0.7 mV), Boltzmann fitting): −18.8 ± 0.5 mV
inhibition of human KCNQ1/KCNE1 channel currents ([1]; 10 nM rmBD3): 21.8 ± 3.6%
inhibition of human KCNQ1/KCNE1 channel currents ([1]; 100 nM rmBD3): 32.4 ± 1.8%
inhibition of human KCNQ1/KCNE1 channel currents ([1]; 1 μM rmBD3): 46.3 ± 4.2%
inhibition of human KCNQ1/KCNE1 channel currents ([1]; 10 μM rmBD3): 68.8 ± 3.8%
IC50 ([1]; Hill equation fitting, four concentrations, read-out: IC50, human KCNQ1/KCNE1 channel currents): 1200 ± 800 nM
inhibition of human Kv3.2 potassium currents (human Kv3.2 channel): 11.6 ± 1.3%
inhibition of mutant Kv1.6-M428A channel (Kv1.6-M428A channel): 39.3 ± 1.8%
inhibition of mutant Kv1.6-D411A channel (Kv1.6-D411A channel): 43.2 ± 3.5%
inhibition of human Kv1.3 potassium currents (human Kv1.3 channel): 14.6 ± 0.9%
inhibition of human KCNQ1 channel currents (human KCNQ1 channel): 26.1 ± 4.8%
inhibition of human Kv1.6 potassium currents (human Kv1.6 channel): 31.2 ± 3.6%
inhibition of hERG potassium currents (hERG channel): 14.7 ± 3.9%
inhibition of mutant Kv1.6-D401A channel (Kv1.6-D401A channel): 20.7 ± 4.5%
inhibition of mutant Kv1.6-D400A channel (Kv1.6-D400A channel): 54.9 ± 1.9%
inhibition of mouse Kv1.2 potassium currents (mouse Kv1.2 channel): 4.9 ± 0.6%
inhibition of mouse Kv1.1 potassium currents (mouse Kv1.1 channel): 19.0 ± 2.2%

hBD1: human β-defensin, Kv1.3 channel blocker binding the pore region (DHYNCVSSGGQCLYSACPIFTKIQGTCYRGKAKCCK; ends and bridges not checked; cysteine pairing not given here; UniProt P60022 33-68, looked up)
IC50 (Kv1.3): 11800 nM

human β-defensin 2 [hBD2]
IC50 (Kv1.3): 0.022 nM
